Laboratory results from PubChem BioAssay AID179 (DTP/NCI, 2004).
Where “and” joins values, the source holds several entries; their conditions need not be identical. Identical values can stand only once. Calls of active or inactive are those of the source.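 The calls were made as follows: active = compounds giving half or more protection of infected cells from virus-caused growth loss, again on retest; inactive = the rest.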

Test system: CEM cells HIV-1 protection, formazan growth assay
Assay: NCI AIDS Antiviral Assay
Conditions: for IC50: measured here: growth of uninfected CEM cells
Method in brief: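 CEM (human) cells, HIV-1 infected vs uninfected, 5-point dosing, formazan growth read-out. Retest threshold 50% protection.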

## Nc1ccc(N=Nc2ccc(C(=O)O)cc2)c(N)c1N=Nc1ccc(N=Nc2ccc(O)c(C(=O)O)c2)cc1
  EC50: 49 µM
  IC50: > 100 µM

## Nc1cc2cc([N+](=O)[O-])ccc2oc1=O
  EC50: > 178 µM
  IC50: > 178 µM

## COc1ccc2c(c1)CCC1C3(CCCC21C=O)OCCO3 (centres undefined)
  EC50: > 166 µM
  IC50: > 166 µM

## N/C(=N/N=C/C1CCCCC1)NO
  outcome: inactive

## CCCOC(=O)C(C)(C)C(OP(=O)(OCCC)OCCC)=C(C)C
  EC50: > 200 µM
  IC50: 105 µM

## CCC1C(c2ccccc2)=CCC(C(=O)O)C1C (centres undefined)
  EC50: > 200 µM
  IC50: > 200 µM

## O=C(O)c1cc[c]([Sb](=[O])([OH])[OH])cc1
  EC50: 29.5 µM
  IC50: > 200 µM

## CCN(CC)C(=O)SCCSC(=O)N(CC)CC
  EC50: > 100 µM
  IC50: > 100 µM

## O=C1C(=Cc2ccc(Cl)cc2)C(=O)c2ccccc21
  EC50: > 17.4 µM
  IC50: > 17.4 µM

## COc1nc(N(C)C)nc2c1n(C)c[n+]2C
  EC50: > 107 µM
  IC50: 12.6 µM

## CC(C)c1cccc(C(C)C)c1NC(=O)C(=O)C(C(=O)c1ccc2ccccc2c1)C1OC(=O)c2ccccc21 (centres undefined)
  EC50: > 67.6 µM
  IC50: 34.7 µM

## O=C(O)c1ccccc1C(=O)Nn1cnnc1
  EC50: > 200 µM
  IC50: > 200 µM

## CN(C)CCCNC(=O)c1cc(NC(=O)c2cc(NC(=O)c3cc(NC(=O)c4cncc(C(=O)Nc5cc(C(=O)Nc6cc(C(=O)Nc7cc(C(=O)NCCCN(C)C)n(C)c7)n(C)c6)n(C)c5)c4)cn3C)cn2C)cn1C
  EC50: > 100 µM
  IC50: > 100 µM

## CC(=O)NNc1nc(C)c(C(=O)NNC(=O)C(=O)Nc2ccc(C)cc2[N+](=O)[O-])s1
  EC50: > 83.2 µM
  IC50: 39.8 µM

## CCN(CC)OC(=O)/C=C/c1ccccc1
  outcome: inactive

## COCO[C@@H]1C(=O)N(c2ccccc2)[C@@H]1c1ccccc1
  EC50: > 178 µM
  IC50: > 178 µM

## CCc1n[nH]c(=S)n1/N=C/c1ccc(-c2ccc([N+](=O)[O-])cc2)o1
  EC50: > 11 µM
  IC50: > 11 µM

## O=c1cn[nH]c2ccc(Br)cc12
  EC50: > 95.5 µM
  IC50: > 95.5 µM

## COc1ccc(C)cc1S(=O)(=O)c1c(Cl)cccc1[N+](=O)[O-]
  EC50: > 200 µM
  IC50: > 200 µM

## c1ccc2c(c1)c1ccccc1n2-n1c2ccccc2c2ccccc21
  EC50: > 200 µM
  IC50: 132 µM

## CCOC(=O)c1cnc2[nH]c(=O)c3ccccc3n2c1=O
  outcome: inactive

## C/C(=N\N=C(/[O-])c1ccncc1)c1cccc(/C(C)=N/N=C(\[O-])c2ccncc2)n1.O.[Cu+2]
  EC50: > 200 µM
  IC50: 2.24 µM

## O=C1C(Br)=C(C2=CC(=P(c3ccccc3)(c3ccccc3)c3ccccc3)C=C2)C(=O)C(Br)=C1C1=CC(=P(c2ccccc2)(c2ccccc2)c2ccccc2)C=C1
  EC50: > 50.1 µM
  IC50: > 50.1 µM

## Nc1ncnc2c1ncc(=O)n2C1CC(O)C(CO)O1 (centres undefined)
  EC50: > 200 µM
  IC50: > 200 µM

## CC(C)=CCOc1cc(NC(=S)c2ccsc2C)ccc1Cl
  EC50: 0.0417 µM
  IC50: 15.8 µM

## N#CC(NC12CC3CC(CC(C3)C1)C2)c1ccccc1C(F)(F)F (centres undefined)
  EC50: > 77.6 µM
  IC50: > 77.6 µM

## O=C(CN1C(=O)c2cccc3c(Br)ccc(c23)C1=O)c1ccc(F)cc1
  EC50: > 200 µM
  IC50: 52.5 µM

## COc1ccc(NCc2cc(OC)c(OC)c(OC)c2)cc1
  EC50: > 2 µM
  IC50: 0.214 µM and 0.316 µM

## Cc1ccc(NC(=O)C(=O)C(C#N)c2nc(-c3ccc(-c4ccccc4)cc3)cs2)c(C)c1 (centres undefined)
  EC50: > 66.1 µM
  IC50: > 66.1 µM

## COc1ccc2c(c1OC)C(C=C(c1ccccc1)c1ccccc1)CN(C)C2 (centres undefined)
  EC50: > 93.3 µM
  IC50: 15.8 µM

## C=CCC1C(=O)C(C(=O)OC)N2CCc3c([nH]c4ccccc34)C12 (centres undefined)
  EC50: > 282 µM
  IC50: 138 µM

## CCCCCC#CCOC(=O)C(=[N+]=[N-])P(=O)(c1ccccc1)c1ccccc1
  EC50: > 200 µM
  IC50: 95.5 µM

## C[n+]1ccccc1-c1nc(-c2cccc[n+]2C)nc(-c2cccc[n+]2C)n1
  EC50: > 200 µM
  IC50: > 200 µM

## COc1ccc(COCC[C@H](C)OC2OC(CO[Si](C)(C)C(C)(C)C)C(O)C(O)C2O)cc1 (some centres undefined)
  EC50: > 200 µM
  IC50: 16.2 µM

## CCOC(=O)C(NC(=O)c1nc[nH]c1[N+](=O)[O-])C(C)C (centres undefined)
  EC50: > 91.2 µM
  IC50: 63.1 µM

## CCC1=CCN(c2cc(C)ccn2)OC1c1ccc(OC)cc1 (centres undefined)
  EC50: > 32.4 µM
  IC50: > 32.4 µM

## Cc1c(CCCl)c(N=P(c2ccccc2)(c2ccccc2)c2ccccc2)n2c(nc3ccccc32)c1C#N
  EC50: > 200 µM
  IC50: > 200 µM

## CC(=O)OCC(OC(C)=O)C(OC(C)=O)C(/C=N\Nc1nc2ccccc2c(=O)[nH]1)OC(C)=O (centres undefined)
  EC50: > 200 µM
  IC50: > 200 µM

## CCc1cc2c(c3[nH]ccc13)[C@@H](C)C[C@H]2C
  outcome: inactive

## O=C(CCCC[n+]1ccccc1)Sc1ccccc1C(=O)Nc1ccc(S(=O)(=O)NC(=O)c2ccccc2)cc1
  EC50: 18.2 µM
  IC50: 61.7 µM

## COc1cccc(CN2CCCN(/N=C/c3c4c(O)c5c(O)c(C)c6c(c5c3O)C(=O)C(C)(O/C=C/C(OC)C(C)C(OC(C)=O)C(C)C(O)C(C)C(O)C(C)/C=C/C=C(/C)C(=O)N4)O6)CC2)c1 (centres undefined)
  EC50: > 200 µM
  IC50: 5.01 µM

## O=C(/C=C/c1ccc(Cl)cc1)NC1C=Nc2ccc([N+](=O)[O-])cc2NC1=O (centres undefined)
  EC50: > 200 µM
  IC50: > 200 µM

## Cc1cccc(C)c1N1C(=O)C(=O)C(c2nc3ccccc3s2)/C(=N/NC(=O)NN)C1=O (centres undefined)
  outcome: inactive

## O=C(O)C(Cc1ccccc1)NCc1c(O)ccc2c(-c3ccccc3)cc(=O)oc12 (centres undefined)
  EC50: > 200 µM
  IC50: > 200 µM

## CO/C(=N\N=C\c1ccc(Cl)cc1Cl)c1ccncc1
  EC50: > 21.9 µM
  IC50: > 21.9 µM

## Nc1nc2c(-c3ccc([N+](=O)[O-])cc3)nnn2c2ccccc12
  EC50: > 4.68 µM
  IC50: > 4.68 µM

## O=C(O)Cc1c(-c2ccc([N+](=O)[O-])cc2)c(=O)oc2cc(O)ccc12
  EC50: > 200 µM
  IC50: 21.4 µM

## CCOC(=O)c1cc(-c2ccc(OC)c(OC)c2)cn1C
  EC50: > 200 µM
  IC50: 39.8 µM

## CCN(CC)CCN1C(=O)c2cccc3cc([N+](=O)[O-])cc(c23)C1=O
  EC50: > 200 µM
  IC50: 1.48 µM

## COc1ccc2c(c1OC)C1N(C)CCc3cc4c(cc3C1(OC)C2=O)OCO4 (centres undefined)
  outcome: inactive

## COC[C@H](Cc1ccccc1)N=Cc1ccccc1
  EC50: > 200 µM
  IC50: > 200 µM

## O=C(CC1Sc2ccccc2NC1=O)Nc1cc(Cl)ccc1Cl (centres undefined)
  EC50: > 70.8 µM
  IC50: > 70.8 µM

## C1CN2CCO[SiH](O1)OCC2
  outcome: inactive

## O=[N+]([O-])c1ccc(N=C/C=C/Nc2ccc([N+](=O)[O-])cc2)cc1
  EC50: > 200 µM
  IC50: 52.5 µM

## CCOP(=O)(OCC)C1C(=O)O[C@H]2CCCC[C@@H]12 (some centres undefined)
  outcome: inactive

## Cc1cc(=O)n2nc(CSc3nnc(N)s3)sc2n1
  EC50: > 200 µM
  IC50: > 200 µM

## CCOC(=O)c1ccc(N=c2sc3ccccc3nc2Nc2ccc(C(=O)OCC)cc2)cc1
  EC50: > 200 µM
  IC50: > 200 µM

## O=C(O)c1c(-c2ccccc2)nn2c1ccc1ccccc12
  EC50: > 200 µM
  IC50: > 100 µM

## CC1=CC2C(C=C1)S(=O)(=O)N1CC21c1ccccc1 (centres undefined)
  outcome: inactive

## CN1C(=O)[C@@]2(C=CC3(CC2)OCCO3)c2ccccc21
  EC50: > 200 µM
  IC50: 35.5 µM

## O=C(/C=C\c1cccc(O)c1)/C=C/c1cccc(O)c1
  EC50: 107 µM
  IC50: 112 µM

## CCC(C)(C(=O)O)C(=O)O
  EC50: > 200 µM
  IC50: > 200 µM

## Cc1ccccc1N(CCC#N)C1=NN(C(=O)CC(=O)Nc2ccccc2)C(c2ccccc2)C1 (centres undefined)
  EC50: > 77.6 µM
  IC50: > 77.6 µM

## N#C/C(=C\c1ccc(Cl)cc1)c1ccccc1[N+](=O)[O-]
  EC50: > 200 µM
  IC50: 120 µM

## COC1(OC)C2C=CC1C([C@](C)(N)CO)C2 (some centres undefined)
  EC50: > 1100 µM
  IC50: > 1100 µM

## Cc1nnc2c3nccnc3c(N)nn12
  EC50: > 200 µM
  IC50: > 200 µM

## COC(=O)c1ccc(C)cc1CC1Cc2cccc(C)c2C1=O (centres undefined)
  EC50: > 200 µM
  IC50: 5.37 µM

## NC(=S=O)C(F)(F)C(F)(F)C(F)(F)F
  EC50: > 105 µM
  IC50: 89.1 µM

## O=C1C(c2ccccc2)=[N+]([O-])c2ccccc21
  outcome: inactive

## Cc1nc(Nc2ccc([N+](=O)[O-])cc2)sc1C(/C=C/c1ccc(N(C)C)cc1)=N/NC(=O)c1ccccc1
  EC50: > 13.8 µM
  IC50: > 13.8 µM

## O=C1C2CCC(N1c1ccc(F)cc1)n1c(=O)n(-c3ccccc3)c(=O)n12 (centres undefined)
  outcome: inactive

## CC(=O)/C=C(/C=N/O)c1ccccc1
  EC50: > 200 µM
  IC50: > 200 µM

## CCn1c(=O)nc2n(-c3ccccc3)c3ccccc3nc-2c1=O
  outcome: inactive

## O=C1[C@@H]2[C@@H](c3ccccc3)[C@]2(Cl)C(=O)[C@H]2[C@H](c3ccccc3)[C@@]12Cl
  outcome: inactive

## O=C1NN(C2=NNC3(C(=O)N2)c2ccccc2-c2ccccc23)C(c2ccccc2)=N/C1=C/c1ccc(Cl)cc1
  EC50: > 100 µM
  IC50: 70.8 µM

## Cc1cccc(C(C)(C)C)c1NC(=O)CC1C(=O)Nc2ccccc2S1(=O)=O (centres undefined)
  EC50: > 1.86 µM
  IC50: > 1.86 µM

## Cc1nc2c(=O)n(C)ncc2[nH]1
  EC50: > 200 µM
  IC50: > 200 µM

## CC(=O)Oc1ccc(C2(c3ccc(OC(C)=O)cc3)C(=O)Nc3ccccc32)cc1
  EC50: > 200 µM
  IC50: 35.5 µM and 36.3 µM

## O=C1/C(=C\c2ccccc2)C2/C(=C\c3ccccc3)C(=O)/C(=C\c3ccccc3)C2/C1=C\c1ccccc1 (centres undefined)
  outcome: inactive

## Cn1c(=O)c2c(nc3n(Cc4ccccc4)c(=O)c(NCCCBr)cn23)n(C)c1=O
  EC50: 30.9 µM
  IC50: 41.7 µM

## Clc1ccc(C2=Nc3ccccc3SC(c3ccc(Cl)c(Cl)c3)C2)c(Cl)c1 (centres undefined)
  EC50: > 15.8 µM
  IC50: > 15.8 µM

## COC1CC(O)C2OC(c3ccccc3)OCC2O1 (centres undefined)
  outcome: inactive

## FC1C2=C(SC1(F)F)C1CCC2C1 (centres undefined)
  EC50: > 200 µM
  IC50: > 200 µM

## CCOC(=O)C(NC(C)=O)(Nc1ccc(F)cc1)C(F)(F)F (centres undefined)
  outcome: inactive

## O=C(O)c1cc2ccccc2c(Br)c1O.O=[N+]([O-])C1CCC(O)C2[N-]CCCC21.[Cu+]
  EC50: > 200 µM
  IC50: 3.39 µM

## c1ccc(CSC2(SCc3ccccc3)CCCC2)cc1
  outcome: inactive

## CC(=O)C(SSC(C(C)=O)C(C)=O)C(C)=O
  EC50: > 200 µM
  IC50: 8.51 µM

## CCOC(=O)/C(=C/c1cccc(OC)c1)N(CC)CC
  EC50: > 182 µM
  IC50: > 182 µM
